Our source for the EC50 values is patent publication US8916702B2 (priority 2012, dated 2014).

In this test the test system is HCV pseudoparticles (genotype 1a HCV E1 and E2 envelope, H77C isolate). Kind of test: microbe, parasite or virus in culture. It is filed as cell-based. The note with it: Hepatitis C virus.
[1] abbreviates: Huh-7, read-out: Activity (EC50 class), HCV pseudoparticles (genotype 1a, H77C) in Huh7 cells, EC50 expressed as class A/B.
[2] abbreviates: Huh-7, 48 h, read-out: Activity (EC50 class), HCV pseudoparticles, Huh7 cells, luciferase 2 days after infection, average of duplicates.
The mark [3] stands for this setting: Huh-7, 48 h, HCV pseudoparticles (genotype 1a, H77C) in Huh7 cells, average of duplicate, luciferase 2 days after infection.
The mark [4] stands for this setting: Huh-7, 48 h, HCV pseudoparticle infection of Huh7 cells, luciferase 2 days after infection, average of duplicates.
Setting [5] is: Huh-7, 48 h, read-out: Activity (EC50 class), HCV pseudoparticle infection of Huh7 cells, luciferase 2 days after infection, EC50 expressed as class A/B.

Where two headings read alike, the source gives them in different places.

On to `COC(=O)[C@H](CNC(=O)C(=O)Nc1ccc(-c2csc(C)n2)cc1)NC(=O)c1ccc(Nc2nc(NC3(c4ccc(Cl)cc4)CC3)nc(OCC(F)(F)F)n2)cc1` [Compound 3190], for which the EC50 – broadly, the concentration at which the effect is half-maximal – under setting [1] is 0.01 to 10 nM.
On to `CC(C)(C)c1cccc(NC(=O)C(=O)NC[C@H](NC(=O)c2ccc(Nc3nc(NC4(c5ccc(Cl)cc5)CC4)nc(OCC(F)(F)F)n3)cc2)C(=O)O)c1` [Compound 3760], for which, under setting [2], the EC50 lay within 0.01 to 10 nM.
As to `NS(=O)(=O)c1ccc(NC(=O)C(=O)NC/C(=N/C(=O)c2ccc(Nc3nc(NC4(c5ccc(Cl)cc5)CC4)nc(OCC(F)(F)F)n3)cc2)C(=O)O)cc1` [Compound 3155], the EC50 under setting [1] is 0.01 to 10 nM.
Take `Cc1cc(C)n(-c2ccccc2NC(=O)C(=O)NCC(C)(C)CNC(=O)c2ccc(Nc3nc(NC4(c5ccc(Cl)cc5)CC4)nc(OCC(F)(F)F)n3)cc2)n1` [Compound 3177]: under setting [1], the EC50 is 0.01 to 10 nM.
Turning to `CCN(CC)CCNC(=O)c1ccc(NC(=O)C(=O)NC/C(=N/C(=O)c2ccc(Nc3nc(NC4(c5ccc(Cl)cc5)CC4)nc(OCC(F)(F)F)n3)cc2)C(=O)O)cc1` [Compound 3157], the EC50 under setting [1] was 0.01 to 10 nM.
In the case of `C=Cc1ccc(NC(=O)C(=O)NCC(C)(C)CNC(=O)c2ccc(Nc3nc(NC4(c5ccc(Cl)cc5)CC4)nc(OCC(F)(F)F)n3)cc2F)cc1` [Compound 3515], the EC50 was 0.017 nM under setting [3] and 0.01 to 10 nM under setting [1].
As for `O=C(NCC[C@H](NC(=O)c1ccc(Nc2nc(NC3(c4ccc(Cl)cc4)CC3)nc(OCC(F)(F)F)n2)cc1)C(=O)O)C(=O)NCC1CCCOC1` (stereo partly drawn) [Compound 1208], the EC50 by setting is: under setting [4], 0.21 nM; under setting [5], 0.01 to 10 nM.
With `COC(=O)[C@H](CNC(=O)C(=O)NC1CCCC(O)C1)NC(=O)c1ccc(Nc2nc(NC3(c4ccc(Cl)cc4)CC3)nc(OCC(F)(F)F)n2)cc1` (stereo partly drawn) [Compound 1056], under setting [5], the EC50 was 0.01 to 10 nM.
Same read-out and setting: the same measure for `CC(NC(=O)C(=O)NCC[C@H](NC(=O)c1ccc(Nc2nc(NC3(c4ccc(Cl)cc4)CC3)nc(OCC(F)(F)F)n2)cc1)C(=O)O)C1CC1` (stereo partly drawn) [Compound 1440]: 0.01 to 10 nM; for `COC(=O)[C@H](CNC(=O)C(=O)NCCc1cnn(C)c1)NC(=O)c1ccc(Nc2nc(NC3(c4ccc(Cl)cc4)CC3)nc(OCC(F)(F)F)n2)cc1` [Compound 1302]: 0.01 to 10 nM.
For the compound `CC(C)(C)c1ccc(NC(=O)C(=O)NC[C@H](NC(=O)c2ccc(Nc3nc(NC4(c5ccc(Cl)cc5)CC4)nc(OCC(F)(F)F)n3)cc2)C(=O)O)cc1` [Compound 3294], under setting [1], the EC50 lay within 0.01 to 10 nM.
For the compound `COC(=O)[C@H](CNC(=O)C(=O)N[C@H]1C[C@@H]2C[C@@H]([C@@H]1C)C2(C)C)NC(=O)c1ccc(Nc2nc(NC3(c4ccc(Cl)cc4)CC3)nc(OCC(F)(F)F)n2)cc1` [Compound 1066], the EC50 under setting [5] lay in the range of 0.01 to 10 nM.
Consider `COc1ccc(NC(=O)C(=O)NC[C@H](NC(=O)c2ccc(Nc3nc(NC4(c5ccc(Cl)cc5)CC4)nc(OCC(F)(F)F)n3)cc2)C(=O)O)cn1` [Compound 1349], for which the EC50 under setting [5] fell in the range of 0.01 to 10 nM.
Same read-out and setting: the same measure for `COC(=O)[C@H](CNC(=O)C(=O)Nc1ccccc1F)NC(=O)c1ccc(Nc2nc(NC3(c4ccc(Cl)cc4)CC3)nc(OCC(F)(F)F)n2)cc1` [Compound 1253]: 0.01 to 10 nM.
For `COC(=O)[C@H](CNC(=O)C(=O)Nc1cccc(CCC(N)=O)c1)NC(=O)c1ccc(Nc2nc(NC3(c4ccc(Cl)cc4)CC3)nc(OCC(F)(F)F)n2)cc1` [Compound 3738], the EC50 under setting [2] fell in the range of 0.01 to 10 nM.
As to `O=C(NCC[C@H](NC(=O)c1ccc(Nc2nc(NC3(c4ccc(Cl)cc4)CC3)nc(OCC(F)(F)F)n2)cc1)C(=O)O)C(=O)NCC1CC1c1cccc(F)c1` (stereo partly drawn) [Compound 1448], the EC50 under setting [5] fell in the range of 0.01 to 10 nM.
Take `CC(CNC(=O)C(=O)NCc1ccc(F)cc1)CNC(=O)c1ccc(Nc2nc(NC3(c4ccc(Cl)cc4)CC3)nc(OCC(F)(F)F)n2)cc1` (stereo not drawn) [Compound 3346]: the EC50 runs as follows: under setting [3], 0.067 nM; under setting [1], 0.01 to 10 nM.
For the compound `O=C(NCCC(NC(=O)c1ccc(Nc2nc(NC3(c4ccc(Cl)cc4)CC3)nc(OCC(F)(F)F)n2)cc1)C(=O)O)C(=O)Nc1ccc(Cn2cncn2)cc1` (stereo not drawn) [Compound 3520], the EC50 under setting [1] lay within 0.01 to 10 nM.
Consider `O=C(NCC[C@H](NC(=O)c1ccc(Nc2nc(NC3(c4ccc(Cl)cc4)CC3)nc(OCC(F)(F)F)n2)cc1)C(=O)O)C(=O)Nc1cccc(Cl)c1` [Compound 1500], for which the EC50 under setting [5] was in the range of 0.01 to 10 nM.
For `COC(=O)[C@H](CNC(=O)C(=O)Nc1ccc(Oc2cccnc2)cc1)NC(=O)c1ccc(Nc2nc(NC3(c4ccc(Cl)cc4)CC3)nc(OCC(F)(F)F)n2)cc1` [Compound 3207], under setting [1], the EC50 is 0.01 to 10 nM.
As to `COC(=O)[C@H](CNC(=O)C(=O)Nc1cccc(C(=O)Nc2ccccc2)c1)NC(=O)c1ccc(Nc2nc(NC3(c4ccc(Cl)cc4)CC3)nc(OCC(F)(F)F)n2)cc1` [Compound 3691], under setting [2], the EC50 lay within 0.01 to 10 nM.
Still for that read-out and setting: the same measure for `O=C(NCC[C@H](NC(=O)c1ccc(Nc2nc(NC3(c4ccc(Cl)cc4)CC3)nc(OCC(F)(F)F)n2)cc1)C(=O)O)C(=O)Nc1cccc(Oc2cccnc2)c1` [Compound 3662]: 0.01 to 10 nM.
On to `COC(=O)[C@H](CNC(=O)C(=O)NCCc1ccncc1)NC(=O)c1ccc(Nc2nc(NC3(c4ccc(Cl)cc4)CC3)nc(OCC(F)(F)F)n2)cc1` [Compound 1288], for which the EC50 under setting [5] was in the range of 0.01 to 10 nM.
Regarding `CN(CCCN(C)C(=O)c1ccc(Nc2nc(NC3(c4ccc(Cl)cc4)CC3)nc(OCC(F)(F)F)n2)cc1)C(=O)C(=O)Nc1ccc(F)cc1` [Compound 3412], the EC50 under setting [1] is 0.01 to 10 nM.
For the compound `CC(O)(CNC(=O)C(N)=O)CNC(=O)c1ccc(Nc2nc(NC3(c4ccc(Cl)cc4)CC3)nc(OCC(F)(F)F)n2)cc1` (stereo not drawn) [Compound 3834], the EC50 reads like this: (Huh-7, 48 h, HCV pseudoparticles, Huh7 cells, luciferase 2 days after infection, average of duplicates) 0.086 nM; under setting [2], 0.01 to 10 nM.
Turning to `COC(=O)[C@H](CNC(=O)C(=O)NC1(CC(C)C)CC1)NC(=O)c1ccc(Nc2nc(NC3(c4ccc(Cl)cc4)CC3)nc(OCC(F)(F)F)n2)cc1` [Compound 1058], the EC50 is 1.15 nM under setting [4] and 0.01 to 10 nM under setting [5].
Take `CNC(=O)C(=O)NCC[C@H](NC(=O)c1ccc(Nc2nc(NC3(c4ccc(Cl)cc4)CC3)nc(OCC(F)(F)F)n2)cc1)C(=O)OC` [Compound 1010, (S)-methyl 2-(4-(4-(1-(4-chlorophenyl)cyclopropylamino)-6-(2,2,2-trifluoroethoxy)-1,3,5-triazin-2-ylamino)benzamido)-4-(2-(methylamino)-2-oxoacetamido)butanoate]: the EC50 under setting [5] is 0.01 to 10 nM.
With `COc1cccc(CNC(=O)C(=O)NCC(C)(C)CNC(=O)c2ccc(Nc3nc(NC4(c5ccc(Cl)cc5)CC4)nc(OCC(F)(F)F)n3)cc2)c1` [Compound 3012], the EC50 under setting [1] is 0.01 to 10 nM.
On the same count and under the same terms, the same measure for `CC(C)(CNC(=O)C(=O)Nc1ccccc1C(N)=O)CNC(=O)c1ccc(Nc2nc(NC3(c4ccc(Cl)cc4)CC3)nc(OCC(F)(F)F)n2)cc1` [Compound 3375]: 0.01 to 10 nM; for `O=C(NC/C(=N/C(=O)c1ccc(Nc2nc(NC3(c4ccc(Cl)cc4)CC3)nc(OCC(F)(F)F)n2)cc1)C(=O)O)C(=O)Nc1ccc(-n2cnc(O)c2O)cc1` [Compound 3163]: 0.01 to 10 nM.
On to `O=C(NCC1CCCO1)C(=O)NC[C@@H](NC(=O)c1ccc(Nc2nc(NC3(c4ccc(Cl)cc4)CC3)nc(OCC(F)(F)F)n2)cc1)C(=O)O` (stereo partly drawn) [Compound 1042], for which, under setting [5], the EC50 was 0.01 to 10 nM.
Take `Cc1nnnn1-c1cc(Nc2nc(NC3(c4ccc(Cl)cc4)CC3)nc(OCC(F)(F)F)n2)ccc1C(=O)NCC(C)(C)CNC(=O)C(N)=O` [Compound 3519]: under setting [1], the EC50 was 0.01 to 10 nM.
With `O=C(NCC[C@H](NC(=O)c1ccc(Nc2nc(NC3(c4ccc(Cl)cc4)CC3)nc(OCC(F)(F)F)n2)cc1)C(=O)O)C(=O)Nc1ccc(Cl)nc1` [Compound 3611], under setting [2], the EC50 lay within 0.01 to 10 nM.
In the case of `CC(C)(CNC(=O)C(=O)Nc1ccc2ncoc2c1)CNC(=O)c1ccc(Nc2nc(NC3(c4ccc(Cl)cc4)CC3)nc(OCC(F)(F)F)n2)cc1` [Compound 1567], the EC50 under setting [5] was 0.01 to 10 nM.
On to `CC(C)(CNC(=O)c1ccc(Nc2nc(NC3(c4ccc(Cl)cc4)CC3)nc(OCC(F)(F)F)n2)cc1)NC(=O)C(=O)N1CCc2ccccc2C1` [Compound 3440], for which the EC50 under setting [1] lay within 0.01 to 10 nM.
With `COC(=O)[C@H](CCNC(=O)C(=O)NCc1ccc(F)cc1)NC(=O)c1ccc(Nc2nc(NC3(c4ccc(Cl)cc4)CC3)nc(OCC(F)(F)F)n2)cc1` [Compound 1145], the EC50 under setting [5] fell in the range of 0.01 to 10 nM.
As for `CN(CCCNC(=O)c1ccc(Nc2nc(NC3(c4ccc(Cl)cc4)CC3)nc(OCC(F)(F)F)n2)cc1)C(=O)C(N)=O` [Compound 3447], the EC50 under setting [1] is 0.01 to 10 nM.
Regarding `CC(C)(CNC(=O)C(=O)Nc1ccc(F)cc1)CNC(=O)c1ccc(Nc2nc(NC3(c4ccc(Cl)cc4)CC3)nc(OCC(F)(F)F)n2)cc1` [Compound 1479], the EC50 under setting [5] was in the range of 0.01 to 10 nM.
For `COC(=O)[C@H](CCNC(=O)C(=O)Nc1ccc(OC)nc1)NC(=O)c1ccc(Nc2nc(NC3(c4ccc(Cl)cc4)CC3)nc(OCC(F)(F)F)n2)cc1` [Compound 1218], under setting [5], the EC50 was 0.01 to 10 nM.
The same measure, in the same setting: to `O=C(NCc1cc(F)ccc1F)C(=O)NC[C@H](NC(=O)c1ccc(Nc2nc(NC3(c4ccc(Cl)cc4)CC3)nc(OCC(F)(F)F)n2)cc1)C(=O)O` [Compound 1169] belongs 0.01 to 10 nM.
On to `CN(CCCNC(=O)c1ccc(Nc2nc(NC3(c4ccc(Cl)cc4)CC3)nc(OCC(F)(F)F)n2)cc1)C(=O)C(=O)NCc1ccc(F)cc1` [Compound 3444], for which, under setting [1], the EC50 lay in the range of 0.01 to 10 nM.
Still for that read-out and setting: the same measure for `O=C(Cc1nccs1)C(=O)NCC(O)CNC(=O)c1ccc(Nc2nc(NC3(c4ccc(Cl)cc4)CC3)nc(OCC(F)(F)F)n2)cc1` (stereo not drawn) [Compound 3462]: 0.01 to 10 nM.
Regarding `O=C(Nc1ccc(F)cc1)C(=O)NC1CCCC1CNC(=O)c1ccc(Nc2nc(NC3(c4ccc(Cl)cc4)CC3)nc(OCC(F)(F)F)n2)cc1` (stereo not drawn) [Compound 1465, N^1-(2-((4-((4-((1-(4-chlorophenyl)cyclopropyl)amino)-6-(2,2,2-trifluoroethoxy)-1,3,5-triazin-2-yl)amino)benzamido)methyl)cyclopentyl)-N^2-(4-fluorophenyl)oxalamide], the EC50 under setting [5] was in the range of 0.01 to 10 nM.
